In patent US20210149304A1, “PHOTOSENSITIVE RESIN COMPOSITION, CURED FILM, ELEMENT COMPRISING CURED FILM, ORGANIC EL DISPLAY DEVICE COMPRISING CURED FILM, METHOD FOR PRODUCING CURED FILM, AND METHOD FOR PRODUCING ORGANIC EL DISPLAY DEVICE” (TORAY INDUSTRIES, INC., priority 2017, published 2021):

Test: physchem
Conditions: not given
Experimental: The acid dissociation constant (pKa) is a logarithmic value of the inverse number of the acid dissociation constant pKa in a dilute aqueous solution at 25° C. In cases of multistep dissociation, the dissociation constant in the first step (that is, pKa1) is employed.
In the compound (E2) having a phenolic hydroxyl group indicating an acid dissociation constant pKa of 6.0 to 9.5 at 25° C., the acid dissociation constant (pKa) is a logarithmic value of the inverse number of the acid dissociation constant in a dilute aqueous solution at 25° C. In cases of multistep dissociation, the dissociation constant in the first step (that is, pKa1) is employed. […] The acid dissociation constant pKa is preferably not less than 6.3, more preferably not less than 6.6, still more preferably not less than 7.0.

Compound | pKa | pKa (acid dissociation constant)
Oc1ccc(C(c2ccc(O)cc2)(C(F)(F)F)C(F)(F)F)cc1 [E(i), bisphenol AF] | 8.7 | 8.7
O=C(c1ccc(O)cc1)c1ccc(O)cc1 [E(iii), 4,4′-dihydroxybenzophenone] | 7.7 | –
O=C(c1ccccc1O)c1ccccc1O [E(iv), 2,2′-dihydroxybenzophenone] | 7.3 | –
Oc1ccc(C(F)(F)F)cc1 [E(v), 4-(trifluoromethyl)phenol] | 8.5 | –
CC(c1ccc(O)cc1)(c1ccc(O)cc1)c1ccc(O)cc1 [E(vi), 1,1,1-tris(4-hydroxyphenyl)ethane] | 10 | –

Next, values leading:

pKa | pKa (acid dissociation constant) | Compound
11.6 | – | Cc1cc(O)c(C(C)(C)C)cc1C(C)CC(c1cc(C(C)(C)C)c(O)cc1C)c1cc(C(C)(C)C)c(O)cc1C (stereo not drawn) [AO-30, 1,1,3-tris(2-methyl-4-hydroxy-5-tert-butylphenyl)butane]
12 | – | Cc1cc(CCC(=O)OCC(C)(C)C2OCC3(CO2)COC(C(C)(C)COC(=O)CCc2cc(C)c(O)c(C(C)(C)C)c2)OC3)cc(C(C)(C)C)c1O (stereo not drawn) [AO-80, 3,9-bis[1,1-dimethyl-2-[(3-tert-butyl-4-hydroxy-5-methylphenyl)propionyloxy]ethyl]-2,4,8,10-tetraoxaspiro[5.5]undecane]

Same assay, conditions: at 25° C., dilute aqueous solution, first step pKa1

Compound | pKa (acid dissociation constant)
O=S(=O)(c1ccc(O)cc1)c1ccc(O)cc1 [E(ii), bisphenol S] | 7.6
